From article PMC4264242, “Androgen Receptor Antagonists and Anti-Prostate Cancer Activities of Some Newly Synthesized Substituted Fused Pyrazolo-, Triazolo- and Thiazolo-Pyrimidine Derivatives” (International Journal of Molecular Sciences, 2014)
“Also recorded” adds a separate entry of the source.

Tests used:
castrated immature rats = assay: In vivo anti-androgenic activity in castrated immature rats treated with testosterone propionate; set-up: species or system rat; conditions: for ED50: Rattus norvegicus, read-out: ED50, in vivo anti-androgen activity; for % (Inhibition), in vivo anti-androgen activity: inhibition of TP effect (TP 0.5 mg/kg s.c. once daily for 5 days), tested compound 10-30 mg/kg p.o.
Description: […] male Wistar rats were obtained from the Animal House Colony, Research Institute of Ophthalmology, Giza, Egypt. Prepubertal male rats aged 3 weeks were castrated using the scrotal route under ether anesthesia.

mutant AR in LNCaP cells = biological target: T1, mutant AR in LNCaP cells (Homo sapiens, UniProt P10275, T878A); assay: Anti-prostate cancer screening, anti-androgenic bioassay (AR transactivation) in LNCaP cells; type: cell-based; conditions: 1 nM DHT, 24 h
T1 construct: endogenous in cells; host or cells: LNCaP cells (only reporter plasmids transfected)
T1 sequence (P10275 1-920 T878A): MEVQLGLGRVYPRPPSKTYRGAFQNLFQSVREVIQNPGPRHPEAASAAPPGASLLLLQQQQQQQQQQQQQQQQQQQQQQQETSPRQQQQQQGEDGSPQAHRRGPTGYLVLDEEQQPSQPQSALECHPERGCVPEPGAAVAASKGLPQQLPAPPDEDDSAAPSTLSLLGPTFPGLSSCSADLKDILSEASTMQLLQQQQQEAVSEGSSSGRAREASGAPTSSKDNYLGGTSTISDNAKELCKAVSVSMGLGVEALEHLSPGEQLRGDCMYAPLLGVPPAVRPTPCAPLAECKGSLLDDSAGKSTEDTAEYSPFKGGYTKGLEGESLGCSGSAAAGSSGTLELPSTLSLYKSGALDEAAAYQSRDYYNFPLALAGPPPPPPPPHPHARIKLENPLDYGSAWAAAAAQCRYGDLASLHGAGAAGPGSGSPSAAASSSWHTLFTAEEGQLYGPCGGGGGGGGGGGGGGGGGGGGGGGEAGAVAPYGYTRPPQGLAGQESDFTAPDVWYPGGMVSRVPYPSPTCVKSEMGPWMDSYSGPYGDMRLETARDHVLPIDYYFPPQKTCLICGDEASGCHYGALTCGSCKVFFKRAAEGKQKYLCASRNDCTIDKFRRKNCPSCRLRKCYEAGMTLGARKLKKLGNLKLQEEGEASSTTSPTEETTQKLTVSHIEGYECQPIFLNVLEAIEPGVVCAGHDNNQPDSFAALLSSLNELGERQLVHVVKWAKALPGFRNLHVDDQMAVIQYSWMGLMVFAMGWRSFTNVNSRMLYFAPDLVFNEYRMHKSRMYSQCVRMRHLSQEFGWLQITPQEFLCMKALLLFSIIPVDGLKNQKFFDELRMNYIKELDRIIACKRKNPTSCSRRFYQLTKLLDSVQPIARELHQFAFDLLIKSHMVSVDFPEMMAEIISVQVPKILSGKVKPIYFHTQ
Experimental: Human prostate cancer LNCaP and PC-3 cells were maintained in RPMI medium and Dulbecco’s minimum essential medium (DMEM), respectively. Both media were supplemented with penicillin (25 units/mL), streptomycin ([…]), and 10% fetal calf serum. For the androgen receptor transactivation assay, an androgen-dependent reporter gene transcription test was employed as the primary screening for potential anti-androgen identification. This assay was first performed in LNCaP cells, which express a clinically relevant mutant AR. […] Wild type AR transactivation assay was performed in PC-3 host cells, which lack an endogenous, functional AR. The method and conditions of cell and gene transfection have been described previously. In brief, cells were plated in 24-well tissue culture dishes for 24 (PC-3 cells) or 48 (LNCaP cells) h prior to transfection. Subsequently, LNCaP cells were transfected with a reporter gene, MMTV-luciferase, which contains a MMTV-long terminal repeat (LTR) promoter and an androgen receptor binding element, and Renilla Luciferase Control Reporter Vectors 40 (PRL-SV40), which served as an internal control for transfection efficiency. PC-3 cells were transfected with a wild type AR expression plasmid, plasmide gene-5 androgen recptor (pSG5AR), in addition to the above-mentioned MMTV-luciferase reporter gene and PRL-SV40 internal control. SuperFect (Qiagen, Chatsworth, CA, USA) was employed as the transfection reagent following the manufacturer’s recommendations. At the end of a 5-h transfection, the medium was changed to DMEM or RPMI supplemented with 10% charcoal dextran-stripped, i.e., androgen-depleted, serum. After 24 h, the cells were treated with 1 nM of DHT and/or test compounds at the designated concentrations.
After 24 h the cells were harvested for luciferase activity assay using the Dual Luciferase Assay System (Promega, Madison, WI, USA.). The derived data was expressed as relative luciferase activity normalized to the internal luciferase control.

[1] = Acute toxicity (LD50) in rats; conditions: rat, in vivo, rats injected with increasing doses
Experimental: The LD50 was determined by using rats injected with different increasing doses of the synthesized compounds. The dose that killed 50% of the animals was calculated according to Austen and Brocklehurst (Table 4).

[2] = other: injected (kind of injection not stated)

SMILES | ED50 (castrated immature rats) | % (Inhibition), in vivo anti-androgen activity (castrated immature rats) | IC50 (mutant AR in LNCaP cells) | LD50 ([1]; other: injected) | ED50, in vivo anti-androgen activity (castrated immature rats; castrated immature rats, TP 0.5 mg/kg s.c., compound p.o.) | % (Inhibition), in vivo anti-androgen activity (castrated immature rats; listed as compound 1) | IC50 LNCaP, anti-prostate cancer activity (mutant AR in LNCaP cells) | LD50 [1, 2]
CCOC1SCC2NC(=O)c3cnn(-c4nc5c(ccc6ccccc65)s4)c3N21 (stereo not shown) [Compound 13, 2-[3-Ethoxy-5-dihydro-6H-7-oxo-[1,3]thiazolo[3,4-b]pyrimidino[4,5-c]pyrazol-2-yl]naphthalino[1,2-d]thiazole] | 0.047 mg/kg | 97.56% | 49.6 nM | 443 mg/kg | – | – | – | –
N#Cc1cnn(-c2nc3c(ccc4ccccc43)s2)c1/N=C\NN [Compound 9, 2-[3-Imidoformic hydrazido-4-cyanopyrazol-2-yl]naphthalino[1,2-d]thiazole] | 0.095 mg/kg | 86.56% | 76.6 nM | 125 mg/kg | – | – | – | –
Nc1nc(=S)[nH]c2c1cnn2-c1nc2c(ccc3ccccc32)s1 [Compound 5, 2-[6-Amino-3H-4-thiopyrimidino[4,5-c]pyrazol-2-yl]naphthalino[1,2-d]thiazole] | 0.089 mg/kg | 89.09% | 64.3 nM | 267 mg/kg | – | – | – | –
NNc1nc2c(ccc3ccccc32)s1 [Compound 1, 1-(naphtho[1,2-d]thiazol-2-yl)hydrazine] | – | Inactive | – | 1160 mg/kg | Inactive | devoid from any activities | devoid from any activities; also recorded: Inactive | –
Cc1nc2c3cnn(-c4nc5c(ccc6ccccc65)s4)c3ncn2n1 [Compound 10, 2-[6-Methyl[1,2,4]triazolo[2,3-c]pyrimidino[6,5-c]pyrazol-2-yl]naphthalino[1,2-d]thiazole] | 0.071 mg/kg | 98.87% | 43.5 nM | 316 mg/kg | – | – | – | –
Nc1ncnc2c1cnn2-c1nc2c(ccc3ccccc32)s1 [Compound 3] | 0.063 mg/kg | 91% | 58.6 nM | – | – | – | – | 175 mg/kg
N=c1sc(=S)[nH]c2c1cnn2-c1nc2c(ccc3ccccc32)s1 [Compound 6, 2-[6-Imino-3H-4-thiothiazino[4,5-c]pyrazol-2-yl]naphthalino[1,2-d]thiazole] | 0.092 mg/kg | 88.76% | 72.4 nM | 258 mg/kg | – | – | – | –
CCO/C=N\c1c(C#N)cnn1-c1nc2c(ccc3ccccc32)s1 [Compound 8, 2-[3-Ethylimidoformat-4-cyanopyrazol-2-yl]naphthalino[1,2-d]thiazole] | 0.097 mg/kg | 85.43% | 78.5 nM | 236 mg/kg | – | – | – | –
N=c1c2cnn(-c3nc4c(ccc5ccccc54)s3)c2ncn1NC(=O)c1ccccc1 [Compound 11] | 0.045 mg/kg | 90.01% | 61.6 nM | – | – | – | – | 325 mg/kg
N#Cc1cnn(-c2nc3c(ccc4ccccc43)s2)c1N [Compound 2, 2-[3-Amino-4-cyanopyrazol-2-yl]naphthalino[1,2-d]thiazole] | 0.049 mg/kg | 95.49% | 51.5 nM | 163 mg/kg | – | – | – | –
Nc1n[nH]c2c1cnn2-c1nc2c(ccc3ccccc32)s1 [Compound 4] | 0.051 mg/kg | 93.98% | 56.6 nM | – | – | – | – | 266 mg/kg
CCOC1SCC(=O)N1c1c(C#N)cnn1-c1nc2c(ccc3ccccc32)s1 (stereo not shown) [Compound 12, 2-[3-(2-Ethoxy-4-oxo-5-dihydro-1,3-thiazol-3-yl)-4-cyanopyrazol-2-yl]-naphthalino[1,2-d]thiazole] | 0.098 mg/kg | 84.65% | 80 nM | 234 mg/kg | – | – | – | –
